Reference: ChEMBL document CHEMBL1275601, “Striking species difference in the contribution of concentrative nucleoside transporter 2 to nucleoside uptake between mouse and rat hepatocytes” (Antimicrob Agents Chemother, 2010)
Active and inactive are the calls of the source. No cut-off for these calls is given here.

Key:
Assay type in all cases: cell-based
[1] = target: T1, Sodium/nucleoside cotransporter 1 (Rattus norvegicus) (UniProt Q62674); assay: Transport through CNT1 in rat hepatocytes by oil filtration assay in presence of sodium ions in Kreb-henseleit buffer; settings: Hepatocyte
T1 sequence (whole entry): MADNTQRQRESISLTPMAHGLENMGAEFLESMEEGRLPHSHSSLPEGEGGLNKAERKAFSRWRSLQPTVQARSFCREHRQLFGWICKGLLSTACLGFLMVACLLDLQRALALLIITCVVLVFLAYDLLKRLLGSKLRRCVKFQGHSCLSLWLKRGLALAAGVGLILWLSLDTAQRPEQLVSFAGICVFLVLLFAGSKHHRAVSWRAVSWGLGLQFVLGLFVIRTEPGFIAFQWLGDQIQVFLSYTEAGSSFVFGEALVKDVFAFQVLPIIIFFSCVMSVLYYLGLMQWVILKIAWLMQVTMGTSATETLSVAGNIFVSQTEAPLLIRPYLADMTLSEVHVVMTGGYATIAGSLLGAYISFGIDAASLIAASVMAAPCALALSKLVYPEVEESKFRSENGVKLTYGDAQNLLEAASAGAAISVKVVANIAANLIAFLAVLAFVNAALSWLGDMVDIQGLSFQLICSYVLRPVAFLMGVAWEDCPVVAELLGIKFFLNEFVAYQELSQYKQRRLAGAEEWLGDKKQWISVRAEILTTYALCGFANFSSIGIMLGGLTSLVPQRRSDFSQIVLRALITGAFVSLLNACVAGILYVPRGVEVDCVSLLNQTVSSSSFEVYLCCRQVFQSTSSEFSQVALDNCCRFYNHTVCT

Hepatocyte [2] = assay: Transport through CNT3 in rat hepatocytes by oil filtration assay in presence of sodium ions in Kreb-henseleit buffer
[3] = target: T1, Sodium/nucleoside cotransporter 1 (Rattus norvegicus); assay: Transport through CNT1 in rat hepatocytes by oil filtration assay in presence of sodium ions in Kreb-henseleit buffer containing 100 uM NBMPR and thymidine; settings: Hepatocyte
Hepatocyte [4] = assay: Transport through CNT3 in rat hepatocytes by oil filtration assay in presence of sodium ions in Kreb-henseleit buffer containing 100 uM NBMPR and 1 mM inosine
Hepatocyte [5] = assay: Transport through CNT3 in rat hepatocytes by oil filtration assay in presence of sodium ions in Kreb-henseleit buffer containing 100 uM NBMPR and 1 mM uridine
[6] = target: T2, Equilibrative nucleoside transporter 1 (Mus musculus) (UniProt Q9JIM1); assay: Transport through ENT1 in mouse hepatocytes by oil filtration assay in presence 100 nM of transporter inhibitor NBMRP; settings: Hepatocyte
T2 sequence (whole entry): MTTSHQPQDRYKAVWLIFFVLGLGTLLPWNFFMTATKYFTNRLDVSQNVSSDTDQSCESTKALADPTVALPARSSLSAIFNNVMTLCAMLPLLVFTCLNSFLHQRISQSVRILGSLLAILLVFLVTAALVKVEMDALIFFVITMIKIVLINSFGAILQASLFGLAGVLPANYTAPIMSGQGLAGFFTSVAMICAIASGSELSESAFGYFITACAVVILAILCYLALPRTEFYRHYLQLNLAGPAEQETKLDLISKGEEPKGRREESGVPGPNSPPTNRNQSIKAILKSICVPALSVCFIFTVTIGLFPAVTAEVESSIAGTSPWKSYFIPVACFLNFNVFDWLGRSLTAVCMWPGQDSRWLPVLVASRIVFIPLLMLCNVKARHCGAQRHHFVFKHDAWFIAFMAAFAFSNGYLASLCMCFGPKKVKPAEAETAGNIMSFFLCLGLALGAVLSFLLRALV

[7] = target: T3, Equilibrative nucleoside transporter 1 (Rattus norvegicus) (UniProt O54698); assay: Transport through ENT1 in rat hepatocytes by oil filtration assay in presence 100 nM of transporter inhibitor NBMRP; settings: Hepatocyte
T3 sequence (whole entry): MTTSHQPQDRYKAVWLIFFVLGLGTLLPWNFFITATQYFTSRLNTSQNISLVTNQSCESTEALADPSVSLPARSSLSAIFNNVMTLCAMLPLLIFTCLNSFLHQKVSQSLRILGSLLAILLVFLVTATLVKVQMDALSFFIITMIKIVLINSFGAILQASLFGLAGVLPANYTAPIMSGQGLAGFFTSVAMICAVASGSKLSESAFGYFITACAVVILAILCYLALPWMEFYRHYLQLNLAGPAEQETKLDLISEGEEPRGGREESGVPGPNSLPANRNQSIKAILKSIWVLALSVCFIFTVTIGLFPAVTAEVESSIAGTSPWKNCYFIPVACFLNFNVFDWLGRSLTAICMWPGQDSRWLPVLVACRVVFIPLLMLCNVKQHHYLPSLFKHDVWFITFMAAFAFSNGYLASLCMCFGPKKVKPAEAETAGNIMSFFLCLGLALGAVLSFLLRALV

[8] = target: T2, Equilibrative nucleoside transporter 1 (Mus musculus); assay: Transport through ENT1 in mouse hepatocytes by oil filtration assay in presence 100 uM of transporter inhibitor NBMRP; settings: Hepatocyte
[9] = target: T4, Equilibrative nucleoside transporter 2 (Mus musculus) (UniProt Q61672); assay: Transport through ENT2 in mouse hepatocytes by oil filtration assay in presence 100 uM of transporter inhibitor NBMRP; settings: Hepatocyte
T4 sequence (whole entry): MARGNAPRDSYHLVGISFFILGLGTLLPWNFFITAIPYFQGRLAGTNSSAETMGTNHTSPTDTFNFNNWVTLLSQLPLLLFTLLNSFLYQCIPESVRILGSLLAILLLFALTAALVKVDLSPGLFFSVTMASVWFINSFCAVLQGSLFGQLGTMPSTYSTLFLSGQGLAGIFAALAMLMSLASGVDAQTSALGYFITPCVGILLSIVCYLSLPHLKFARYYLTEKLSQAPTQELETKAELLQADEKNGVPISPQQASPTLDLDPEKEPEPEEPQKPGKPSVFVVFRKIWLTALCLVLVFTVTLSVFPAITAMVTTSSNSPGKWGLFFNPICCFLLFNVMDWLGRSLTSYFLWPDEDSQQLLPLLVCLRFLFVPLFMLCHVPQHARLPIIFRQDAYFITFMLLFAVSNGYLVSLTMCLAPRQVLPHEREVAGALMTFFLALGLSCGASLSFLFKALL

[10] = target: T5, Equilibrative nucleoside transporter 2 (Rattus norvegicus) (UniProt O54699); assay: Transport through ENT2 in rat hepatocytes by oil filtration assay in presence 100 uM of transporter inhibitor NBMRP; settings: Hepatocyte
T5 sequence (whole entry): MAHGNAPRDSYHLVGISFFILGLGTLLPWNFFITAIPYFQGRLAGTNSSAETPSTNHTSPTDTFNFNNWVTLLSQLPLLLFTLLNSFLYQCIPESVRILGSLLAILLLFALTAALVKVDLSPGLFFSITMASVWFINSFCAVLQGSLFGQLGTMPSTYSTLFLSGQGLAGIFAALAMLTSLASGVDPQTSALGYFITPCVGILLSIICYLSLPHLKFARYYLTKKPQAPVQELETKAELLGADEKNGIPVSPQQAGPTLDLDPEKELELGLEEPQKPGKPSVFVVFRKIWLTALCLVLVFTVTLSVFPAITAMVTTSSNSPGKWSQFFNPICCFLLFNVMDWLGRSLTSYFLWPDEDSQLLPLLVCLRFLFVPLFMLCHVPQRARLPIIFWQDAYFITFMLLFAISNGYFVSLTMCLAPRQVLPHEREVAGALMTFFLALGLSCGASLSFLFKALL

SMILES | Activity [1] | Activity (Hepatocyte [2]) | Activity [3] | Activity (Hepatocyte [4]) | Activity (Hepatocyte [5]) | Activity [6] | Activity [7] | Activity [8] | Activity [9] | Activity [10]
NC(=O)c1ncn([C@@H]2O[C@H](CO)[C@@H](O)[C@H]2O)n1 | Active | Active | inactive | inactive | inactive | inactive | inactive | inactive | inactive | inactive
Nc1ncnc2c1ncn2[C@@H]1O[C@H](CO)[C@@H](O)[C@H]1O | Active | Active | inactive | inactive | inactive | inactive | inactive | inactive | inactive | inactive
